Data taken from US20090227619A1, “Harmine derivatives, intermediates used in their preparations, preparation processes and use therefo” (priority 2003, published 2009).
pIC50: −log10 of the molar value. Read-outs that look alike come from different tables or passages of the source.

Experiments:
Lovo = assay: In vitro cytotoxicity, IC50 by MTT method, Lovo; type: cell-based; conditions: Homo sapiens; Lovo cell strain; read-out: IC50 Lovo
In short: (§1)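 Cells in RPMI1640 with 10% FBS at 37° C, 5% CO2 were seeded at 10^5/ml and exposed to a compound concentration gradient for 48 h, at least three replicates, solvent controls.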

Hela = assay: In vitro cytotoxicity, IC50 by MTT method, Hela; type: cell-based; conditions: Homo sapiens; Hela cell strain; read-out: IC50 Hela
In short: as §1

PLA-801 = assay: In vitro cytotoxicity, IC50 by MTT method, PLA-801; type: cell-based; conditions: PLA-801 cell strain; read-out: IC50 PLA-801
In short: as §1

Kunming mice = conditions: for Death rate: single i.p.
in vivo = conditions: both, mouse, ip
Lewis lung cancer = conditions: Lewis lung cancer; for Body weight of the animals, end, First time / Body weight of the animals, end, Second time: ip × 10qd; for Inhibition rate (%) Lewis cancer: comparison table 43, in vivo;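 for all read-outs here: mice implanted subcutaneously in the axilla with Lewis lung tumor cells, treated starting the following day, killed roughly three weeks after implantation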
NIH3T3 = assay: In vitro cytotoxicity, IC50 by MTT method, NIH3T3; type: cell-based; conditions: Mus musculus; NIH3T3 cell strain; read-out: IC50 NIH3T3
In short: as §1

S180 sarcoma = conditions: S180 sarcoma; for Body weight of the animals, beginning, First time / Body weight of the animals, end, First time / Inhibition rate, First time / Weight of the tumor X ± SD, First time / Body weight of the animals, beginning, Second time / Body weight of the animals, end, Second time / Inhibition rate, Second time: ip × 10qd; for Inhibition rate (%) S180 sarcomata: comparison table 43, in vivo
Bel-7402 = assay: In vitro cytotoxicity, IC50 by MTT method, Bel-7402; type: cell-based; conditions: Homo sapiens, Bel-7402; Bel7402 cell strain; read-out: IC50 Bel7402
In short: as §1

HepG2 = assay: In vitro cytotoxicity, IC50 by MTT method, HepG2; type: cell-based, human; conditions: Homo sapiens; HepG2 cell strain; read-out: IC50 HepG2
In short: as §1

[1] = Solubility (physico-chemical data tables); conditions: qualitative; Table 12, 3,9-disubstituted β-carboline derivatives
BGC-823 = assay: In vitro cytotoxicity, IC50 by MTT method, BGC-823; type: cell-based; conditions: Homo sapiens, BGC-823; BGC823 cell strain; read-out: IC50 BGC823
In short: as §1

CT-DNA [2] = assay: UV absorption spectrum method with CT-DNA; type: binding; conditions: CT-DNA 40 ug/ml, compound 20 uM, 37° C. for 2 h, OD at 260 nm
Procedure: Compounds to be tested (20 uM) were added into the PE buffer solution, and its scan curve was identified by the spectrograph at a wavelength of from 200 to 400 nm. CT-DNA (40 ug/ml) and compounds to be tested (20 uM) were added into the PE buffer solution. The mixture was cultured at 37° C. for 2 h, and its scan curve was identified by the UV spectrograph at a wavelength of from 200 to 400 nm. […] After that, the OD value at 260 nm of the scan curve of the medicaments tested and that of the CT-DNA mixture OD value at 260 nm of the scan curve were calculated and compared to determine the influences of the medicaments tested on the UV absorption spectrum of the DNA molecules.

CT-DNA [3] = assay: DNA thermal denaturation, determination of ΔTm; type: binding; conditions: 20 uM compound, Tm of CT-DNA alone 61° C.
In short: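 CT-DNA at 15 ug/ml in PE buffer (1 mM Na2HPO4, 0.1 mM EDTA, pH 7.6), heated at 0.5° C./min from 25 to 95° C. Tm taken as hyperchromic transition mid-point; ΔTm = Tm of drug-DNA complex minus Tm of DNA alone, mean of three runs.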

[4] = 50% male 50% female mice, 240 mg/kg
[5] = 50% male 50% female mice, 300 mg/kg
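Throughout, for Death rate: acute toxicity in Kunming mice grouped by sex, one intraperitoneal dose at five graded levels in Tween-80 plus 0.5% CMC-Na, deaths monitored over two weeks.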
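Throughout, for LD50: acute toxicity in Kunming mice grouped by sex, one intraperitoneal dose at five graded levels in Tween-80 plus 0.5% CMC-Na, deaths monitored over two weeks.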
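Throughout, for MTD: acute toxicity in Kunming mice grouped by sex, one intraperitoneal dose at five graded levels in Tween-80 plus 0.5% CMC-Na, deaths monitored over two weeks.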

Structure (SMILES): O=C(O)c1cc2c3ccccc3n(Cc3ccccc3)c2cn1 [Compound 37, 9-benzyl-β-carboline-3-carboxylic acid]
- pIC50 (Lovo): 4.40
- pIC50 (Hela): 4.05
- pIC50 (PLA-801): 4.00
- Death rate (Kunming mice; [4]): 100
- Death rate (Kunming mice; [5]): 100
- Death rate (Kunming mice; female mice, 240 mg/kg): 100
- Death rate (Kunming mice; female mice, 300 mg/kg): 100
- Death rate (Kunming mice; male mice, 240 mg/kg): 100
- Death rate (Kunming mice; male mice, 300 mg/kg): 100
- LD50 (Kunming mice; mouse, in vivo, ip): 142 to 189 mg/kg
- LD50 at 2 weeks (in vivo; Kunming): 163 mg/kg
- Body weight of the animals, end, First time (Lewis lung cancer; Dosage 25 (mg/ml)): 24.1 g
- Body weight of the animals, end, Second time (Lewis lung cancer; Dosage 25 (mg/ml)): 24.9 g
- Body weight of the animals, beginning, First time (Lewis lung cancer; Dosage 25, ip × 10qd): 18.6 g
- Inhibition rate, First time (Lewis lung cancer; Dosage 25, ip × 10qd): 27.09%
- Weight of the tumor X ± SD, First time (Lewis lung cancer; Dosage 25, ip × 10qd): 1.83 ± 0.17 g
- Body weight of the animals, beginning, Second time (Lewis lung cancer; Dosage 25, ip × 10qd): 19.6 g
- Inhibition rate, Second time (Lewis lung cancer; Dosage 25, ip × 10qd): 29.24%
- Weight of the tumor X ± SD, Second time (Lewis lung cancer; Dosage 25, ip × 10qd): 1.67 ± 0.16 g
- Body weight of the animals, end, First time (Lewis lung cancer; Dosage 50 (mg/ml)): 23.9 g
- Body weight of the animals, end, Second time (Lewis lung cancer; Dosage 50 (mg/ml)): 24.3 g
- Body weight of the animals, beginning, First time (Lewis lung cancer; Dosage 50, ip × 10qd): 18.9 g
- Inhibition rate, First time (Lewis lung cancer; Dosage 50, ip × 10qd): 39.04%
- Weight of the tumor X ± SD, First time (Lewis lung cancer; Dosage 50, ip × 10qd): 1.53 ± 0.14 g
- Body weight of the animals, beginning, Second time (Lewis lung cancer; Dosage 50, ip × 10qd): 19.5 g
- Inhibition rate, Second time (Lewis lung cancer; Dosage 50, ip × 10qd): 43.22%
- Weight of the tumor X ± SD, Second time (Lewis lung cancer; Dosage 50, ip × 10qd): 1.34 ± 0.14 g
- Inhibition rate (%) Lewis cancer (Lewis lung cancer): 43.22%
- pIC50 (NIH3T3): 4.30
- Body weight of the animals, beginning, First time (S180 sarcoma; Dosage 25 (mg/ml)): 19.6 g
- Body weight of the animals, end, First time (S180 sarcoma; Dosage 25 (mg/ml)): 26.9 g
- Inhibition rate, First time (S180 sarcoma; Dosage 25 (mg/ml)): 23.86%
- Weight of the tumor X ± SD, First time (S180 sarcoma; Dosage 25 (mg/ml)): 2.17 ± 0.18 g
- Body weight of the animals, beginning, Second time (S180 sarcoma; Dosage 25 (mg/ml)): 20.4 g
- Body weight of the animals, end, Second time (S180 sarcoma; Dosage 25 (mg/ml)): 25.1 g
- Inhibition rate, Second time (S180 sarcoma; Dosage 25 (mg/ml)): 24.21%
- Weight of the tumor X ± SD, Second time (S180 sarcoma; Dosage 25, ip × 10qd): 2.16 ± 0.27 g
- Body weight of the animals, beginning, First time (S180 sarcoma; Dosage 50 (mg/ml)): 19.7 g
- Body weight of the animals, end, First time (S180 sarcoma; Dosage 50 (mg/ml)): 26.3 g
- Inhibition rate, First time (S180 sarcoma; Dosage 50 (mg/ml)): 34.39%
- Weight of the tumor X ± SD, First time (S180 sarcoma; Dosage 50 (mg/ml)): 1.87 ± 0.13 g
- Body weight of the animals, beginning, Second time (S180 sarcoma; Dosage 50 (mg/ml)): 20.6 g
- Body weight of the animals, end, Second time (S180 sarcoma; Dosage 50 (mg/ml)): 24.7 g
- Inhibition rate, Second time (S180 sarcoma; Dosage 50 (mg/ml)): 32.98%
- Weight of the tumor X ± SD, Second time (S180 sarcoma; Dosage 50, ip × 10qd): 1.91 ± 0.23 g
- Inhibition rate (%) S180 sarcomata (S180 sarcoma): 34.39%
- pIC50 (Bel-7402): 3.96
- pIC50 (HepG2): 4.00
- Solubility [1]: soluble in DMSO
- pIC50 (BGC-823): 4.30
- Influence on the UV absorption of DNA (CT-DNA [2]): increase the UV absorption of DNA

Structure (SMILES): CCCCn1c2ccccc2c2cc(C(=O)O)ncc21 [Compound 36, 9-butyl-β-carboline-3-carboxylic acid]
- pIC50 (Lovo): 5.00
- pIC50 (Hela): 4.22
- pIC50 (PLA-801): 4.05
- ΔTm (CT-DNA [3]; CT-DNA 15 ug/ml, PE buffer pH 7.6): −1.5 °C
- ΔTm (CT-DNA [3]; CT-DNA thermal denaturation): −1.5 °C
- Death rate (Kunming mice; [4]): 0
- Death rate (Kunming mice; [5]): 30
- Death rate (Kunming mice; female mice, 240 mg/kg): 0
- Death rate (Kunming mice; female mice, 300 mg/kg): 40
- Death rate (Kunming mice; male mice, 240 mg/kg): 0
- Death rate (Kunming mice; male mice, 300 mg/kg): 20
- MTD at 2 weeks (in vivo): > 300 mg/kg
- Body weight of the animals, end, First time (Lewis lung cancer; Dosage 50 (mg/ml)): 25.6 g
- Body weight of the animals, end, Second time (Lewis lung cancer; Dosage 50 (mg/ml)): 25.3 g
- Body weight of the animals, beginning, First time (Lewis lung cancer; Dosage 50, ip × 10qd): 18.8 g
- Inhibition rate, First time (Lewis lung cancer; Dosage 50, ip × 10qd): 31.74%
- Weight of the tumor X ± SD, First time (Lewis lung cancer; Dosage 50, ip × 10qd): 2.00 ± 0.28 g
- Body weight of the animals, beginning, Second time (Lewis lung cancer; Dosage 50, ip × 10qd): 20.1 g
- Inhibition rate, Second time (Lewis lung cancer; Dosage 50, ip × 10qd): 31.69%
- Weight of the tumor X ± SD, Second time (Lewis lung cancer; Dosage 50, ip × 10qd): 1.66 ± 0.17 g
- Body weight of the animals, end, First time (Lewis lung cancer; Dosage 100 (mg/ml)): 25.2 g
- Body weight of the animals, end, Second time (Lewis lung cancer; Dosage 100 (mg/ml)): 25.0 g
- Body weight of the animals, beginning, First time (Lewis lung cancer; Dosage 100, ip × 10qd): 19.3 g
- Inhibition rate, First time (Lewis lung cancer; Dosage 100, ip × 10qd): 41.98%
- Weight of the tumor X ± SD, First time (Lewis lung cancer; Dosage 100, ip × 10qd): 1.70 ± 0.17 g
- Body weight of the animals, beginning, Second time (Lewis lung cancer; Dosage 100, ip × 10qd): 20.1 g
- Inhibition rate, Second time (Lewis lung cancer; Dosage 100, ip × 10qd): 46.91%
- Weight of the tumor X ± SD, Second time (Lewis lung cancer; Dosage 100, ip × 10qd): 1.29 ± 0.13 g
- Inhibition rate (%) Lewis cancer (Lewis lung cancer): 46.91%
- pIC50 (NIH3T3): 4.70
- Body weight of the animals, beginning, First time (S180 sarcoma; Dosage 50 (mg/ml)): 19.1 g
- Body weight of the animals, end, First time (S180 sarcoma; Dosage 50 (mg/ml)): 24.9 g
- Inhibition rate, First time (S180 sarcoma; Dosage 50 (mg/ml)): 29.96%
- Weight of the tumor X ± SD, First time (S180 sarcoma; Dosage 50 (mg/ml)): 1.87 ± 0.16 g
- Body weight of the animals, beginning, Second time (S180 sarcoma; Dosage 50 (mg/ml)): 18.3 g
- Body weight of the animals, end, Second time (S180 sarcoma; Dosage 50 (mg/ml)): 25.3 g
- Inhibition rate, Second time (S180 sarcoma; Dosage 50 (mg/ml)): 31.11%
- Weight of the tumor X ± SD, Second time (S180 sarcoma; Dosage 50, ip × 10qd): 1.86 ± 0.28 g
- Body weight of the animals, beginning, First time (S180 sarcoma; Dosage 100 (mg/ml)): 19.0 g
- Body weight of the animals, end, First time (S180 sarcoma; Dosage 100 (mg/ml)): 24.5 g
- Inhibition rate, First time (S180 sarcoma; Dosage 100 (mg/ml)): 43.07%
- Weight of the tumor X ± SD, First time (S180 sarcoma; Dosage 100 (mg/ml)): 1.52 ± 0.15 g
- Body weight of the animals, beginning, Second time (S180 sarcoma; Dosage 100 (mg/ml)): 18.7 g
- Body weight of the animals, end, Second time (S180 sarcoma; Dosage 100 (mg/ml)): 25.5 g
- Inhibition rate, Second time (S180 sarcoma; Dosage 100 (mg/ml)): 40.00%
- Weight of the tumor X ± SD, Second time (S180 sarcoma; Dosage 100, ip × 10qd): 1.62 ± 0.12 g
- Inhibition rate (%) S180 sarcomata (S180 sarcoma): 43.07%
- pIC50 (Bel-7402): 4.05
- pIC50 (HepG2): 3.77
- pIC50 (BGC-823): 3.92
- Influence on the UV absorption of DNA (CT-DNA [2]): increase the UV absorption of DNA
